Measurements as given in patent publication US12441734B2, “Ferroptosis inhibitor and use therefor” (JICHI MEDICAL UNIVERSITY, priority 2021, dated 2025).

Tests used:
[1] = test system: Leigh syndrome patient cells (KCMC10); experiment: Test III: suppression of BSO-induced ferroptosis, Leigh syndrome patient cells; type: cell-based, human; settings: for EC50: Homo sapiens, read-out: EC50 (50% effective concentration of the suppressive effect on cell death ascribable to ferroptosis induced by BSO); for EC50 / ferroptosis inhibitory effect (judged from EC50 value): Leigh syndrome patient cells (KCMC10), BSO; for ferroptosis inhibitory effect (judged from EC50 value): Table 3; for cell death ascribable to ferroptosis induced by BSO: 100 μM BSO coadded with test compound, FIG. 32
From the text: (§1) Apomorphine and idebenone approved as a therapeutic drug for Leber's hereditary optic neuropathy in the Europe were used as control drugs.
(§2) In the drawing, A depicts the results obtained using compounds D8, D9, D10, D18, D20, D26, and D36, and B depicts the results obtained using compounds D37, D38, D39, D40, D41, D42, and D43. In the drawing, the abscissa depicts test compounds, and the ordinate depicts the cell viability (%) of each treated plot when the number of live cells in a control non-supplemented with BSO is defined as 100%.

dopamine D2 receptor = dopamine D2 receptor (Homo sapiens (Human), UniProt P14416); experiment: Test IV: dopamine D2 receptor binding activity (GeneBLAzer D2-Gqo5-NEAT-bla CHO-K1 Cell-based Assay); settings: for Dopamine D2 receptor binding activity, Activity intensity: CHO-K1 reporter cells, 5 hours
Procedure: In this test, the dopamine D2 receptor binding activity of each test compound was measured using GeneBLAzer D2-Gqo5-NEAT-bla CHO-K1 Cell-based Assay (Thermo Fisher Scientific, Inc.). The CHO cells are designed such that a signal transduction pathway is activated by addition of a drug to express a reporter gene (P lactamase). […] Therefore, the binding activity of the test compound can be measured by measuring a blue fluorescence/green fluorescence ratio. The CHO cells were inoculated at 10,000 cells/well to a 384-well plate and cultured for 16 to 20 hours in a CO2 incubator. […] A substrate mix was added to the cells and incubated at room temperature for 2 hours. […] The respective EC50 values of the test compounds were determined from the measured fluorescence ratios using GraphPad Prism 8.

[2] = test system: human liver cancer cell line (Huh7); experiment: Test V: suppression of RSL-3-induced cell death in liver cancer cell system (LDH, MTT); type: cell-based; parameters: key to LDH (LDH activity, cell death): relative to control without RSL-3 (= 1); settings: Huh7, test compound 1 μM (GSK872 5 μM) 1 hour, then RSL-3 0.5 μM 24 hours, relative value, control non-supplemented with RSL-3 = 1; for viability at 1 µM: Homo sapiens, Huh-7, read-out: MTT (cell proliferation and cell viability)
Procedure: The ferroptosis inducer used was RSL-3.
At the stage where 70% confluency was attained, the medium was replaced with the medium for the test, and DMSO or each test compound (final concentration of GSK872: 5 μM, and final concentration of the other compounds: 1 μM) was added to the cells in each well, which were then cultured for 1 hour. Then, the ferroptosis inducer (final concentration: 0.5 μM) was added to the cells in each well, which were then cultured for 24 hours. After the completion of culture, cell death suppressive activity was measured with lactate dehydrogenase (LDH) activity as an index while cell proliferation and cell viability were measured with activity of reducing yellow tetrazolium salt (MTT) into formazan as an index.
The values in the table are relative values when the LDH activity and MTT value of a control non-supplemented with RSL-3 are each defined as 1.

SH-SY5Y cells = experiment: Test VI: inhibition of rotenone-induced neuronal death (LDH assay); type: cell-based, human; parameters: key: ++: the case where a concentration-dependent inhibitory effect on rotenone-induced cell death was able to be confirmed twice; +: In the third test, the case where the concentration-dependent inhibitory effect was able to be confirmed; ±: the case where no concentration-dependent inhibitory effect was able to be confirmed; −: The case where any inhibitory effect on rotenone-induced cell death was able to be confirmed in none of the two tests; settings: rotenone 1 μM, compound 10 nM-10 μM (Apo 0.1 nM-10 μM), 48 hours
Procedure: After the completion of culture, rotenone-induced cell death was measured using Cytotoxicity LDH Assay Kit-WST (Dojindo Laboratories). […] The test was conducted twice, and the case where a concentration-dependent inhibitory effect on rotenone-induced cell death was able to be confirmed twice was rated as (++). If the inhibitory effect was confirmed in one of the two tests and no inhibitory effect was confirmed in the other test, the third test was conducted. In the third test, the case where the concentration-dependent inhibitory effect was able to be confirmed was rated as (+), and the case where no concentration-dependent inhibitory effect was able to be confirmed was rated as (±). The case where any inhibitory effect on rotenone-induced cell death was able to be confirmed in none of the two tests was rated as (−).

[3] = test system: MELAS patient cells (ME169); experiment: Test III: suppression of BSO-induced ferroptosis, MELAS patient cells; type: cell-based, human; settings: 80 μM BSO coadded with test compound; FIG. 33
From the text: as §1, §2

[4] = test system: Leigh syndrome patient cells (KCMC10); experiment: Test III: suppression of RSL-3-induced ferroptosis, Leigh syndrome patient cells; type: cell-based, human; settings: 100 nM RSL-3 coadded with test compound; FIG. 34
From the text: as §1
as §2, with “RSL-3” for “BSO”

[5] = test system: MELAS patient cells (ME169); experiment: Test III: suppression of RSL-3-induced ferroptosis, MELAS patient cells; type: cell-based, human; settings: 100 nM RSL-3 coadded with test compound; FIG. 35
From the text: as §1
as §2, with “RSL-3” for “BSO”

dopamine D2 receptor, sequence (P14416 whole entry): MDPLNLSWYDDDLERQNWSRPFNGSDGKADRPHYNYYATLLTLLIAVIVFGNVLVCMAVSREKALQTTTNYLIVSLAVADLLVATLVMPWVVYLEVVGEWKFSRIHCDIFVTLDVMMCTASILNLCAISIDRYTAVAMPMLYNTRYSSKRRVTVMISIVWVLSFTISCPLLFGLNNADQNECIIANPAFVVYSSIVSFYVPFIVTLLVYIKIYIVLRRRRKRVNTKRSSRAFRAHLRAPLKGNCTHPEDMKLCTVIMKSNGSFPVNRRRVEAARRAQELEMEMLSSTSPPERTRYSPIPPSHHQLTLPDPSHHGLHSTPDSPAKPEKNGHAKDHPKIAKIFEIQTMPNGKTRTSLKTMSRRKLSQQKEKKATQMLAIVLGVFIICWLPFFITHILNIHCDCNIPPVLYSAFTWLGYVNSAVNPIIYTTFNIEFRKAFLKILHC

| Structure (SMILES) | EC50 [1] [nM] | ferroptosis inhibitory effect (judged from EC50 value) [1] | dopamine D2 receptor binding activity (in words) (dopamine D2 receptor) | Dopamine D2 receptor binding activity, Activity intensity (dopamine D2 receptor) | viability at 1 µM [2] [%] | LDH (LDH activity, cell death) [2] | Inhibitory effect on rotenone-induced cell death (SH-SY5Y cells) | cell death ascribable to ferroptosis induced by BSO [1] | cell death ascribable to ferroptosis induced by BSO [3] | cell death ascribable to ferroptosis induced by RSL-3 [4] | cell death ascribable to ferroptosis induced by RSL-3 [5] |
| --- | --- | --- | --- | --- | --- | --- | --- | --- | --- | --- | --- |
| CN1CCc2cccc3c2[C@H]1Cc1ccc(OCCc2ccccc2)c(O)c1-3 [D48] | 128 | particularly high | no or little | − | 78 | 0.44 | ++ |  |  |  |  |
| CN1CCc2cccc3c2[C@H]1Cc1ccc(OCCCO)c(O)c1-3.Cl [D38] |  | particularly high | no or little | ± | 81 | 1.66 | ++ |  |  |  |  |
| COc1cc(O)c2c(c1)C[C@@H]1c3c(cc4c(c3-2)OCO4)CCN1C [D10] | 750 |  | no or little | − |  |  |  | markedly suppressed | markedly suppressed | suppressed | suppressed |
| CN1CCc2cccc3c2[C@H]1Cc1ccc(OCCCCl)c(O)c1-3.Cl [D39] | 259 |  | no or little | − | 80 | 1.15 | + |  |  |  |  |
| CN1CCc2cccc3c2[C@H]1Cc1ccc(OCCC(c2ccccc2)c2ccccc2)c(O)c1-3 [D54] |  |  | no or little | − | 68 | 0.43 | − |  |  |  |  |
| COc1cc2c(cc1OC)-c1c3c(c(OC)c4c1C(C2)N(C)CC4)OCO3 (stereo not shown) [D20] | 798 |  | no or little | − |  |  |  | markedly suppressed | markedly suppressed | suppressed | suppressed |
| CCCCCCCCCOc1ccc2c(c1O)-c1cccc3c1[C@@H](C2)N(C)CC3.Cl [D41] | 648 |  | no or little | − |  |  |  |  |  |  |  |
| CN1CCc2cc3c(c4c2[C@H]1Cc1ccccc1-4)OCO3 [D18] | 492 |  | no or little | − |  |  |  | markedly suppressed | markedly suppressed | suppressed | suppressed |
| CN1CCc2cccc3c2[C@H]1Cc1ccc(-c2ccccc2)c(O)c1-3 [D45] | 96 | particularly high | no or little | ± | 77 | 0.43 | ++ |  |  |  |  |
| COc1cccc2c1C[C@@H]1c3c(cc4c(c3-2)OCO4)CCN1C [D9] | 393 |  | no or little | − |  |  |  | markedly suppressed | markedly suppressed | suppressed | suppressed |
| CN1CCc2cccc3c2[C@H]1Cc1ccc(OCc2ccccc2)c(O)c1-3 [D47] | 124 | particularly high | no or little | − | 71 | 0.39 | ++ |  |  |  |  |
| CN1CCc2cccc3c2[C@H]1Cc1ccc(OCCCCc2ccccc2)c(O)c1-3 [D50] | 207 |  | no or little | − | 60 | 0.43 | ++ |  |  |  |  |
| CCCOc1ccc2c(c1O)-c1cccc3c1[C@@H](C2)N(C)CC3.Cl [D40] | 55 | particularly high | no or little | − | 84 | 1.15 | + |  |  |  |  |
| COc1ccc2c(c1O)-c1c(OC)c(OC)cc3c1[C@@H](C2)N(C)CC3 [D43] | 223 |  | no or little | − | 49 | 6.52 | − |  |  |  |  |
| CN1CCc2cccc3c2[C@H]1Cc1ccc(OCCCc2ccccc2)c(O)c1-3.Cl [D37] | 186 | particularly high | no or little | − | 80 | 0.85 | ++ |  |  |  |  |
| CN1CCc2cccc3c2[C@H]1Cc1ccc(OCCCC(F)(F)F)c(O)c1-3.Cl [D42] | 167 | particularly high | no or little | − | 82 | 1.55 | + |  |  |  |  |
| CCOc1ccc2c(c1O)-c1cccc3c1[C@@H](C2)N(C)CC3 [D55] | 4 | particularly high | no or little | − | 78 | 0.44 | + |  |  |  |  |
